Experimental data from publication PMC4795174 (Biochemistry, 2015).

Biological target: BlaC (β-lactamase) (Mycobacterium tuberculosis, UniProt P9WKD3)
Type: biochemical
Conditions: read-out: KI

Chain of BlaC (β-lactamase) (P9WKD3 41-307): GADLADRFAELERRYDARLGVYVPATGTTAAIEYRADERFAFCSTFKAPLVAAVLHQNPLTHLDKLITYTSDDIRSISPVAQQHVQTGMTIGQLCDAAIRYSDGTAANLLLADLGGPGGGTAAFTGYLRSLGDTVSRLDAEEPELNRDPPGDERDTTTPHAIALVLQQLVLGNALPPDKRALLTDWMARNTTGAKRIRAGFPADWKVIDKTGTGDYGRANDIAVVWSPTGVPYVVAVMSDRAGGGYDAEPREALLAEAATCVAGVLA

O=C(O)[C@H]1/C(=C/CO)O[C@@H]2CC(=O)N21 [clavulanate]
KI (inactivation): 6.3 µM
